According to ChEMBL document CHEMBL1201862, “PubChem BioAssay data set” (2004):
Activity calls are given as the source filed them.

What was measured:
Large T antigen = Large T antigen (Simian virus 40, UniProt P03070); type: functional, Betapolyomavirus macacae;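 note: Confirmatory-stage PubChem screen for compounds that inhibit SV40 T antigen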
[1] = target: T1, Replicative DNA helicase DnaB (Mycobacterium tuberculosis, UniProt P9WMR3); assay: DnaB intein splicing inhibitors, dose response, biochemical, cell-free fluorescence (AID 449749); type: functional
T1 sequence (P9WMR3 whole entry): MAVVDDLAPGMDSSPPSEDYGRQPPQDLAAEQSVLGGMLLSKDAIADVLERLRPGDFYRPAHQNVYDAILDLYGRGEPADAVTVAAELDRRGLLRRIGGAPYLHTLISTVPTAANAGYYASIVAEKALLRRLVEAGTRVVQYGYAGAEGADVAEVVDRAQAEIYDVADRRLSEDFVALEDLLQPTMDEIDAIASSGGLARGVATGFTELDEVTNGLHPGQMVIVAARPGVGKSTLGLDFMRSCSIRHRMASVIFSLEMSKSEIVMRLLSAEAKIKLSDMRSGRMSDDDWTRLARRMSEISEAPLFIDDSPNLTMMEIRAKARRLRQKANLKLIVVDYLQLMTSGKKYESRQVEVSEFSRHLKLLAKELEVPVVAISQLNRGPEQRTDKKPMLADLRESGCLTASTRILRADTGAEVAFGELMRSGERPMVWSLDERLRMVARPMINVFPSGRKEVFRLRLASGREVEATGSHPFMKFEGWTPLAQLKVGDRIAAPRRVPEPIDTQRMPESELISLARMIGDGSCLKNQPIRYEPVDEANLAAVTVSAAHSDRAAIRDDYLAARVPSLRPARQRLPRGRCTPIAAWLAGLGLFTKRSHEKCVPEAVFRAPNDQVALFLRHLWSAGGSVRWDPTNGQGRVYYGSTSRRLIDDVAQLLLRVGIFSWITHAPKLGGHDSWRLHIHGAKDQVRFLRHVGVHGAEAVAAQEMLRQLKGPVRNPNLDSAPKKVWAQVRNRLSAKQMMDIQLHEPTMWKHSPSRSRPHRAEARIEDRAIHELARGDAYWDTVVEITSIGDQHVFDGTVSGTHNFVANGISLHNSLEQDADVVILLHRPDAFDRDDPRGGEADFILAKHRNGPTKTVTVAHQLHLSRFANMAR

Protein RecA = target: T2, Protein RecA (Mycobacterium tuberculosis, UniProt P9WHJ3); assay: Fluorescence Cell-Free Homogeneous Dose Retest to Identify Inhibitors of RecA-Intein Splicing Activity. [Related pubchem assays (depositor defined):AID2097, AID2223, AID489010, AID492950]; type: functional
T2 sequence (P9WHJ3 whole entry): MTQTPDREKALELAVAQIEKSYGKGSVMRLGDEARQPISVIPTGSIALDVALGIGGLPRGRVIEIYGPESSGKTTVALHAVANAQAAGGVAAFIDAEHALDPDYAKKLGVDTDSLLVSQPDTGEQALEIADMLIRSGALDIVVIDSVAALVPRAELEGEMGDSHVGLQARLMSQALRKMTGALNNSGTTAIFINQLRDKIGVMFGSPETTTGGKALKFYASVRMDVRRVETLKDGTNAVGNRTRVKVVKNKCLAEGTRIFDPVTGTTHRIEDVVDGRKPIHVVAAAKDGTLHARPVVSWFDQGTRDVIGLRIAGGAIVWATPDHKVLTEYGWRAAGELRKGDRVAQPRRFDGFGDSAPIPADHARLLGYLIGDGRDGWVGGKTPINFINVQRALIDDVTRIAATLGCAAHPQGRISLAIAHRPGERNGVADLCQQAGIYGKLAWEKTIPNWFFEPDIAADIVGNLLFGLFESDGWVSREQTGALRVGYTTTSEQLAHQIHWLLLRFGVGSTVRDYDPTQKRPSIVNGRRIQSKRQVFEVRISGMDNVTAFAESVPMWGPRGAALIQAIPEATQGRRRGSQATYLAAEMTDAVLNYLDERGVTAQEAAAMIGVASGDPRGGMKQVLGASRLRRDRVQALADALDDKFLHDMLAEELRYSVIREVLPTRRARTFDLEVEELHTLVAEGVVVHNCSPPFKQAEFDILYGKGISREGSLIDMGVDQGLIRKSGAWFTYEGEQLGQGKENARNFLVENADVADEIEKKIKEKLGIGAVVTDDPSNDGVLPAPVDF

[2] = growth suppression of beta-catenin-knockout colon cells, dose response, cell-based, HCT116, human colon tumor (AID 1045); type: functional;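 note: HCT116 colon tumor cells with beta catenin knocked out; cells exposed to compound for 60 hours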
[3] = HEp-2 cell cytotoxicity, dose response, cytotoxicity control for RSV inhibitor project, HTS (AID 2410); type: functional; conditions: human respiratory syncytial virus
[4] = target: T3, Calpain-2 catalytic subunit (Sus scrofa, UniProt P43367); assay: pig calpain II inhibitor potency, dose response, biochemical, fluorogenic peptide substrate (AID 1420); type: functional
T3 sequence (P43367 whole entry): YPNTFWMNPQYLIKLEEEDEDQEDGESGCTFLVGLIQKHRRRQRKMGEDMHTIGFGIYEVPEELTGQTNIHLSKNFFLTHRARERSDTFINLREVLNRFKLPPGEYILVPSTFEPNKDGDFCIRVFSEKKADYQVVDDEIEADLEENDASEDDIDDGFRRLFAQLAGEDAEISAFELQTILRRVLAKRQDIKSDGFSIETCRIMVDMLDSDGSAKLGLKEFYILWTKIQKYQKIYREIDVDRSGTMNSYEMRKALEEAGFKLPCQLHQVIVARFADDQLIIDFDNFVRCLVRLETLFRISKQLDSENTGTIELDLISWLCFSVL

[5] = Shn3 3'UTR reporter inhibitors, dose response, cell-based, Clone20 osteoblasts, firefly luciferase, cherry-picked (AID 624132); type: functional;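 note: firefly luciferase luminescence from reporter carrying the Shn3 3'UTR in osteoblasts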
H9c2 = assay: cells; type: functional, cell-based; conditions: Rattus norvegicus, H9c2, Myocardium;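 note: confirmatory concentration-response retest of ultra-high-throughput screening hits for modulation of myocardial damage; cell death induced by hydrogen peroxide oxidative stress; compound pretreatment for 60 min then peroxide exposure for 2 h; potency is for protecting the cells against peroxide damage rather than for killing them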
Protein skinhead-1 = target: T4, Protein skinhead-1 (Caenorhabditis elegans, UniProt P34707); type: functional
T4 sequence (P34707 whole entry): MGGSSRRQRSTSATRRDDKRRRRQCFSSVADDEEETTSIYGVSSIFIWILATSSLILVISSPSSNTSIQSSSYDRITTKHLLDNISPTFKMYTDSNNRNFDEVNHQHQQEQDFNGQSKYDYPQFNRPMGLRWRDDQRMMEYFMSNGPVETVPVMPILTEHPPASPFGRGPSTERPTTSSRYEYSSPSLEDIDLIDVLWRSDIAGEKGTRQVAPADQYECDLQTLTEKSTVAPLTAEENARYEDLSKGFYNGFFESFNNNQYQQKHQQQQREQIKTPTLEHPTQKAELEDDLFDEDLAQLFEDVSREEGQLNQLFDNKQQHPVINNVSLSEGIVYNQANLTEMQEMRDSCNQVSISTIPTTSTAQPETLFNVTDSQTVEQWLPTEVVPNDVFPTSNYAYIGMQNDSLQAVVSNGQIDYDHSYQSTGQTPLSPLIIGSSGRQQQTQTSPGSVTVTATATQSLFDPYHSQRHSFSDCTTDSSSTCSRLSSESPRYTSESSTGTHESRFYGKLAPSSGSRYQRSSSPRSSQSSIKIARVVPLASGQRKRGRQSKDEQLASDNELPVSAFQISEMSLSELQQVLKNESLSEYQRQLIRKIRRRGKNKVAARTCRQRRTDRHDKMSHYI

[6] = Luminescence Cell-Based Dose Response HTS to Identify Activators of Luciferase Translation or Activity in H4 […] Cells. [Related pubchem assays: 1829 (Project Summary), 1814 (Primary HTS)]; type: functional
H4 = assay: Luminescence Cell-Based Dose Response HTS to Identify Activators of 5'UTR Stem-Loop Driven Prion Protein mRNA Translation in H4 Neuroglioblastoma Cells. [Related pubchem assays: 1829 (Project Summary), 1814 (Primary HTS)]; type: functional; conditions: Homo sapiens
[7] = C. albicans growth with fluconazole, confirmation, fluorescence, retest (AID 2467); type: functional, cell-based
cells = type: functional
[8] = NIH-3T3 fibroblast cytotoxicity, dose response, cytotoxicity control, cell-based, fluorescence, Alamar Blue, secondary assay (AID 2327); type: functional;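 note: NIH-3T3 mouse fibroblasts cultured with fluconazole at 8 µg/mL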

Large T antigen, sequence (P03070 whole entry): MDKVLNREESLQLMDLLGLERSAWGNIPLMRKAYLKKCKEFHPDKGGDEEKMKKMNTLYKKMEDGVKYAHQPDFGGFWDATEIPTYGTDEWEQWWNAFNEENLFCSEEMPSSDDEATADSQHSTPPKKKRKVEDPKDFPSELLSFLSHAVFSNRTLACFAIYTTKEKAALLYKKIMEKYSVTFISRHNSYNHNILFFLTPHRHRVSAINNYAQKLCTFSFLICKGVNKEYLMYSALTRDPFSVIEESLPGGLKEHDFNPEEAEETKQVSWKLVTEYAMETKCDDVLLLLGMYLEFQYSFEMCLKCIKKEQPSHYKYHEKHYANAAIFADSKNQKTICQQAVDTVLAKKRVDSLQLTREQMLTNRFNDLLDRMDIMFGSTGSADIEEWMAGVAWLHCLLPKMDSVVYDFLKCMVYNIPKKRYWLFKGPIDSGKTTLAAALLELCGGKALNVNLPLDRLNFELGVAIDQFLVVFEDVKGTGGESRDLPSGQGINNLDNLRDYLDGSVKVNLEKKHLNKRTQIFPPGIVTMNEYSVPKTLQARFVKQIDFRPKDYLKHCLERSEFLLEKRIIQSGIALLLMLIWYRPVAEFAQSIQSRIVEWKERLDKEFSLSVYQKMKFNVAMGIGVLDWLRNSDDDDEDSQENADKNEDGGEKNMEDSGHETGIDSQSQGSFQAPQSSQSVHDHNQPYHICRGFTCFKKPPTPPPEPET

CNC(=O)Oc1ccc2ncccc2c1
IC50 (Large T antigen): > 100 µM (active)

CCOC(=O)c1nnc(-c2cccs2)nc1Oc1ccc(Cl)cc1
AC50 [1]: 24.5 µM (active) | EC50 (Protein RecA): 16.5 µM (active)

COC(=O)C1=C(C)N(c2ccc(F)c(Cl)c2)C(=O)C1
EC50 [2]: 206 µM (active)

Cc1ccc(S(=O)(=O)NCC2CCC(C(=O)NCCCN3CCOCC3)CC2)cc1 (stereo not drawn)
AC50 [1]: > 380 µM (inactive) | EC50 (Protein RecA): > 380 µM (inactive)

CCC(C)c1ccc(NC(=O)Nc2cccnc2)cc1 (stereo not drawn)
CC50 [3]: 22.7 µM (active)

CCOC(=O)N1CCN(c2ccc([N+](=O)[O-])cc2)CC1
CC50 [3]: 26 µM (active) | IC50 [4]: 30.7 µM (not active)

Cc1ccc(C(=O)C(OC(=O)CN2C(=O)c3ccccc3C2=O)c2ccccc2)cc1C (stereo not drawn)
AC50 [1]: 66.8 µM (active) | EC50 (Protein RecA): > 380 µM (inactive)

O=C(O)CN1C(=O)/C(=C\c2cccc(OC(=O)c3ccco3)c2)SC1=S
AC50 [1]: 29.5 µM (active) | EC50 (Protein RecA): 22.6 µM (active)

CCOC(=O)C1CCN(c2cc3c(cc2NC(=O)c2ccccc2Br)n(C)c(=O)n3C)CC1
AC50 [5]: 21.3 µM (active) | IC50 (H9c2): 67.2 µM (inactive)

COc1cc2ccccc2cc1C(=O)Nc1nccs1
IC50 (Protein skinhead-1): 5.97 µM (active) | EC50 [6]: 59.4 µM (active) | EC50 (H4): 22.8 µM (active)

CCCCC(=O)Nc1cccc(-c2csc(-c3ccccc3)n2)c1
CC50 [3]: 23.9 µM (active)

CCCCCCOc1ccc(C(=O)n2cnc(N)n2)cc1
AC50 [1]: 21.6 µM (active) | EC50 (Protein RecA): 1.46 µM (active)

COc1ccc2c(c1)CC/C(=C/c1ccco1)C2=O
IC50 (Protein skinhead-1): 28.9 µM (active)

C=CCn1c(=S)[nH]c2scc(-c3ccco3)c2c1=O
IC50 (Large T antigen): 24.1 µM (active)

CCOc1cc(C=O)cc(N=Nc2cccc([N+](=O)[O-])c2)c1O
EC50 [7]: 4.04 µM (active) | IC50 (cells): 7.46 µM (active) | EC50 [8]: > 150 µM (inactive)

CCC(=O)Nc1cccc(-c2nc3ccc(C)cc3o2)c1
CC50 [3]: 39.4 µM (active)

COc1ccc(Cl)cc1NC(=O)C(C)OC(=O)c1ccc(NS(=O)(=O)c2ccc3[nH]c(O)nc3c2)cc1 (stereo not drawn)
CC50 [3]: 15.8 µM (active)

COc1ccc(N2C(=O)/C(=C/c3ccc([N+](=O)[O-])cc3)C=C2c2ccccc2)cc1
IC50 (Protein skinhead-1): > 100 µM (inactive)

O=S(=O)(c1ccccc1)N1CCC(c2nc(O)c3nnn(Cc4c(F)cccc4Cl)c3n2)CC1
CC50 [3]: 26 µM (active)

CCOc1ccccc1C(=O)Nc1cc2c(cc1N1CCCC1)n(CC)c(=O)n2CC
CC50 [3]: 13.5 µM (active)

O=C(CCl)Nc1cccc(CP(=O)(c2ccccc2)c2ccccc2)c1
AC50 [1]: 93.2 µM (active) | EC50 (Protein RecA): 18.4 µM (active)

CCCCCOc1ccccc1C(=O)NCCC(=O)O
IC50 (Protein skinhead-1): > 100 µM (inactive)

COc1ccc(-c2[nH]nc3c2C(c2ccsc2)C(C#N)=C(N)O3)cc1 (stereo not drawn)
AC50 [1]: 19.2 µM (active) | EC50 (Protein RecA): 13.3 µM (active)

Fc1ccc(OCc2nc(-c3cccs3)no2)cc1
IC50 (Protein skinhead-1): 24.5 µM (active)

O=C1c2ccccc2C(=O)N1CCCCN(C(=O)c1cccc([N+](=O)[O-])c1)c1ccc(Cl)cc1
CC50 [3]: 43.7 µM (active)

Nc1cc(S(=O)(=O)c2ccc(O)c(N)c2)ccc1O
IC50 (Large T antigen): 20.5 µM (active)

Cc1ccccc1-c1noc(-c2cccs2)n1
IC50 (Protein skinhead-1): 7.91 µM (active)

Cc1ccc2ncnc(Nc3cccc([N+](=O)[O-])c3)c2c1
IC50 (Protein skinhead-1): > 100 µM (inactive)

C=CC[C@H](CC(=O)N(CCO)Cc1ccccc1)C(=O)NC[C@H](OC(=O)[C@@H](CC=C)Cc1ccc(F)cc1)c1ccccc1
AC50 [5]: 10.7 µM (active)

CCCC(C(=O)Nc1ccc(S(=O)(=O)N2CCOCC2)cc1)c1ccccc1 (stereo not drawn)
IC50 (Protein skinhead-1): > 100 µM (inactive)

CCC(C(=O)N(C(C)C)C(C)C)c1ccccc1 (stereo not drawn)
IC50 (Protein skinhead-1): > 100 µM (inactive)

O=C(C/C=N\OCc1ccc([N+](=O)[O-])cc1)Nc1ccccc1
IC50 (cells): 16.1 µM (active)

Cc1cc(OC(=O)c2ccccc2)n(CCC#N)n1
AC50 [1]: 8.7 µM (active) | EC50 (Protein RecA): 2.67 µM (active)

Cc1onc(-c2c(Cl)cccc2Cl)c1C(=O)N[C@@H]1C(=O)N2[C@@H]1SC(C)(C)[C@@H]2C(=O)O [DICLOXACILLIN SODIUM]
AC50 [5]: 46.7 µM (active)
